Test results: patent US20260226073A1 (AURIGENE ONCOLOGY LIMITED, priority 2023, published 2026)

Legend:
[1] = molecular target: T1, human recombinant CBL-b (human Biotin CBL-b recombinant protein a.a. 39-426) (Homo sapiens, UniProt Q13191); test: Biochemical assay for CBL-b inhibition (ligand displacement TR-FRET); format: binding; settings: 50 nM CBL-b, 0.3 μM Bodipy FL-Probe, read-out: IC50 (CBL-b inhibition, group)
T1 construct: human Biotin CBL-b recombinant protein a.a; 39-426; Biotin (biotinylated); made in house
T1 sequence (Q13191 39-426): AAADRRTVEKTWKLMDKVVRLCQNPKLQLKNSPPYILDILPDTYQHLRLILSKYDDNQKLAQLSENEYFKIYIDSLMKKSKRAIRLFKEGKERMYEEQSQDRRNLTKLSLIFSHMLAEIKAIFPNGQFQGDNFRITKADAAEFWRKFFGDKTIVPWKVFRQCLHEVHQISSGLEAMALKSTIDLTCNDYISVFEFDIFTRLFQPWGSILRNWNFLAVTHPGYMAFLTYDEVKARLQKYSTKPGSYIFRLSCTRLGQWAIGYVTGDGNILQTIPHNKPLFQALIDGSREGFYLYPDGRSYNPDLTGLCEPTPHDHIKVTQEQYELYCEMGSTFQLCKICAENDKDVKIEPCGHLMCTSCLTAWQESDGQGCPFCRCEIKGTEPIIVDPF
Summary of the method: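 Biotinylated CBL-b (a.a. 39-426, 50 nM final) pre-incubated with compound 60 min at RT in HEPES/NaCl/Triton/BSA/TCEP buffer, then Bodipy FL probe (0.3 μM final) 60 min, then terbium-streptavidin 60 min. TR-FRET read at 665/615 nm; IC50 and % max inhibition from sigmoidal fits.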

[2] = system: NFAT signaling pathway in Jurkat NFAT reporter cells; test: Jurkat NFAT reporter assay; format: cell-based; settings: Homo sapiens, 30 min with compound, then soluble anti-human CD3/CD28 antibody for 6 hours, luciferase readout, read-out: EC50 (Group)
Summary of the method: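 Jurkat cells bearing an NFAT-RE-driven luciferase reporter (1×10^5 per well) preincubated with Cbl-b inhibitor for 30 min, then stimulated 6 h with soluble anti-CD3/CD28. Luminescence read with Bio-Glo; values are fold change over anti-CD3/CD28-stimulated cells without inhibitor.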

[3] = system: human PBMCs stimulated with anti-CD3/CD28 Dynabeads; test: Human PBMC cytokine release assay (IL-2 by ELISA); format: cell-based; settings: Dynabeads CD3/CD28 48 hours, IL-2 ELISA, fold change over baseline, read-out: EC50 (human PBMC cytokine release, group)
Description: Peripheral blood mononuclear cells (PBMC) were isolated from healthy human donor using Histopaque (Sigma). The Cbl-inhibitor was added to 1×10^5 cells per well and the plate was incubated for 30 minutes at 37° C. in 5% CO2 at different concentrations with a final DMSO concentration of <0.5%. Following incubation with the Cbl-b inhibitor, human PBMCs were stimulated with Dynabeads™ Human T-Activator CD3/CD28 (Thermo Fisher Scientific) for 48 hours. Cell free supernatant were collected after end of incubation and were analyzed for cytokine secretion, including IL-2 by ELISA (R&D Systems). Readouts were reported as fold change over baseline. Here, baseline was the measurement obtained from human PBMCs stimulated with Dynabeads™ Human T-Activator CD3/CD28, where the cells were not incubated with a Cbl-b inhibitor.

Row | Structure (SMILES) | IC50 [1] [µM] | EC50 [2] [µM] | EC50 [3] [µM]
1 | Cc1cc(CN2C[C@H](C)C[C@H](C)C2)cc(N2Cc3ccc(C4(Cc5nncn5C)COC4)cc3C2=O)c1 [Compound 56, 2-(3-(((3S,5R)-3,5-Dimethylpiperidin-1-yl)methyl)-5-methylphenyl)-6-(3-((4-methyl-4H-1,2,4-triazol-3-yl)methyl)oxetan-3-yl)isoindolin-1-one] | 0.08 to 0.3 | < 0.3 | < 5
2 | Cc1cc(CN2C[C@@H](C)C[C@H](C)C2)cc(N2Cc3ccc(C4(Cc5nncn5C)COC4)cc3C2=O)c1 [Compound 59, 2-(3-(((3S,5S)-3,5-Dimethylpiperidin-1-yl)methyl)-5-methylphenyl)-6-(3-((4-methyl-4H-1,2,4-triazol-3-yl)methyl)oxetan-3-yl)isoindolin-1-one] | 0.08 to 0.3 | 0.3 to 1 | < 5
3 | Cc1cc(CN2C[C@H](C)C[C@H](C)C2)cc(N2Cc3ccc(C4(Cc5nncn5C)COC4)cc3C2=O)n1 [Compound 78, 2-(4-(((3S,5R)-3,5-Dimethylpiperidin-1-yl)methyl)-6-methylpyridin-2-yl)-6-(3-((4-methyl-4H-1,2,4-triazol-3-yl)methyl)oxetan-3-yl)isoindolin-1-one] | < 0.08 | < 0.3 | < 5

More lines, main results first:

Row | IC50 [1] [µM] | EC50 [2] [µM] | Structure (SMILES) | EC50 [3] [µM]
4 | < 0.08 | < 0.3 | Cn1cnnc1CC1(c2ccc3c(c2)C(=O)N(c2cc(CNCC4CC4)cc(Cl)n2)C3)COC1 [Compound 57, 2-(6-Chloro-4-(((cyclopropylmethyl)amino)methyl)pyridin-2-yl)-6-(3-((4-methyl-4H-1,2,4-triazol-3-yl)methyl)oxetan-3-yl)isoindolin-1-one] | < 5
5 | < 0.08 | < 0.3 | Cn1cnnc1CC1(c2ccc3c(c2)C(=O)N(c2cc(CNCC4CC4)cc(C(F)(F)F)n2)C3)COC1 [Compound 80, 2-(4-(((Cyclopropylmethyl)amino)methyl)-6-(trifluoromethyl)pyridin-2-yl)-6-(3-((4-methyl-4H-1,2,4-triazol-3-yl)methyl)oxetan-3-yl)isoindolin-1-one] | < 5
